≈ marks a conversion by molar mass, not a printed value.
biological target: T1, GSK-3α (Homo sapiens, UniProt P49840); assay: Radiometric kinase activity assay; type: biochemical; conditions: same experimental set-up as Table 1
T1 construct: purchased Upstate Biotechnology
Description: (§1) GSK-3 were assayed for their ability to phosphorylate the appropriate peptide/protein substrate in the presence of 5 μg/ml NR-818 and 10 μM ATP. Using the direct radiometric approach, kinase activities were determined and expressed as % activity compared to the untreated control (Upstate Biotechnology, Lake Placid, N.Y.). Activities are given as the mean of duplicate determinations relative to control incubations in which the inhibitor was substituted with DMSO. In the following table 1 providing results for NR818, the following abbreviations are used: • CDK, cyclin-dependent kinase; • CK, casein kinase; • eEF-2K, eukaryotic elongation factor-2 kinase; • JNK, c-Jun N-terminal kinase; • MAPK, mitogen-activated protein kinase; • PKC, protein kinase C; and • PI 3-kinase, phosphatidylinositol 3-kinase.
(§2) By using this experimental set-up, the inhibiting activity of NR953 on GSK-3 is also tested.

T1 sequence (P49840 whole entry): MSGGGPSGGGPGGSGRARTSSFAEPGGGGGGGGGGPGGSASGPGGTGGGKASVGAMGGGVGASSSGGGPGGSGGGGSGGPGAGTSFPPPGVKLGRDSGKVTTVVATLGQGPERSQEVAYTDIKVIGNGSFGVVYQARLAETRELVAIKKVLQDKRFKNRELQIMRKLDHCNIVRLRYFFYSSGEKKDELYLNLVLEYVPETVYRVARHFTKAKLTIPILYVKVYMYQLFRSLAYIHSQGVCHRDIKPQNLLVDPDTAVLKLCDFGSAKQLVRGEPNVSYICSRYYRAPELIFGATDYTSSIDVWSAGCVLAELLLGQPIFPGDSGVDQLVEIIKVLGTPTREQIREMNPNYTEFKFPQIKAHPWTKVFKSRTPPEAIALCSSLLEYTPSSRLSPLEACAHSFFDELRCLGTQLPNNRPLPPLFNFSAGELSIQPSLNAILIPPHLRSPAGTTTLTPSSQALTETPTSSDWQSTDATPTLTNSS

Row | Compound | IC50 on GSK-3α
1 | Cc1nc(SC(O)C(O)C(O)C(O)C(O)CO)n(Nc2cccc3ccccc23)c1-c1ccccc1 (stereo not shown) [HER/NR953] | low micro-molar concentrations

biological target: T2, GSK-3β (Homo sapiens, UniProt P49841); assay: Radiometric kinase activity assay; type: biochemical; conditions: same experimental set-up as Table 1
T2 construct: purchased Upstate Biotechnology
T2 sequence (P49841 whole entry): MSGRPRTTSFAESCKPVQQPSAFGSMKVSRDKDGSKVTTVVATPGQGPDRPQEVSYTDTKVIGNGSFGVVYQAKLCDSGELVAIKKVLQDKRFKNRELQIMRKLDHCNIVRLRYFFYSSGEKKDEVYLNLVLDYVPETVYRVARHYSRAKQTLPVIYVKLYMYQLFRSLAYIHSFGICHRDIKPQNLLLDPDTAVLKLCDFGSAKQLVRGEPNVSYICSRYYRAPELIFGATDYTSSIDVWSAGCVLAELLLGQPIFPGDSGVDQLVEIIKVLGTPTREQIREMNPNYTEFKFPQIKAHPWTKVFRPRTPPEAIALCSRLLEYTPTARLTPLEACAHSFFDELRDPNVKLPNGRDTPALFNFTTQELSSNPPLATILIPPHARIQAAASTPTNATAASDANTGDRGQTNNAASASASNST
Description: as §1, §2

Row | Compound | IC50 on GSK-3β
2 | Cc1nc(SC(O)C(O)C(O)C(O)C(O)CO)n(Nc2cccc3ccccc23)c1-c1ccccc1 (stereo not shown) [HER/NR953] | low micro-molar concentrations

tested on: Peripheral blood mononuclear cells (PBMCs); assay: PBMC survival (viable cell count, trypan blue exclusion); type: cell-based, human; conditions: NAIM alone, compared to control conditions
Description: Peripheral blood mononuclear cells (PBMCs) from healthy donors were isolated by density centrifugation (Lymphoprep; Nycomed Pharma, AS Diagnostics, Oslo, Norway). For the “non-stimulated” conditions (NS) the cells were cultivated at a density of 1,750,000 cells per ml in RPMI-1640 supplemented with 2 mM L-glutamine, 15% FCS and 0.1% NaHCO3 for 3 days. […] At day 0 of the experiment, the NS and activated cells (PHA-stimulated blasts) were washed with PBS and were pelleted by centrifugation. […] The number of viable cells was counted based on the trypan blue exclusion method. The evolution of the number of cells was followed over a period of approximately 2 weeks.

Row | Compound | PBMC cell viability, NAIM as such
3 | Cc1nc(SC(O)C(O)C(O)C(O)C(O)CO)n(Nc2cccc3ccccc23)c1-c1ccccc1 (stereo not shown) [HER/NR953] | did not affect the cell viability

tested on: M17-TAU P301L cells; assay: TAU cytotoxicity (LDH leakage) in retinoic acid incubated M17-TAU P301L cells; type: cell-based, human; conditions: Homo sapiens, 168 h, reduction of LDH activity of retinoic acid incubated M17-TAU P301L cells, 7 days; read-out: IC50
Excerpt: An TAU expression plasmid was constructed by sub-cloning the cDNA of human TAU-P301L (encoding for TAU with proline 301 substituted by a leucine residue) into mammalian expression vector pcDNA3.1 resulting in plasmid pcDNA3.1-TAU P301L. Plasmids pcDNA3.1 and pcDNA3.1-TAU P301L were transfected to human neuroblastoma cells ([…]; ATCC No. CRL-2267) and independent clonal lines with the plasmids stably integrated into the genome were selected. […] Expression of the TAU P301L genes in the cell lines was confirmed by Western analysis.
In degenerated or dead cells, lactate dehydrogenase (LDH) is leaked out of the cells into the extracellular environment due to a loss of plasma-membrane integrity. This principle was used to determine cytotoxicity by quantifying the level of leaked LDH into the growth medium.
The detailed method for determining TAU cytotoxicity was as follows: From appropriate precultures of M17-3.1 and M17-TAU(P301L) cells were seeded at 2500 cells/cm2 in Optimem Reduced Serum without phenol red (Gibco, Cat. 31985-047) supplemented with 1% fetal calf serum, 1 mM sodium pyruvate, 1× non-essential amino acids, 500 μg/ml G418 0.5× antibiotic/antimycotic. After 3 hours of incubation at 37° C./5% CO2 1 volume of Optimem Reduced Serum (same as described above; except without fetal calf serum) supplemented with 2.5 μM retinoic acid (RA) was added. The cells were further incubated for 7 days. Subsequently, LDH activity was determined using Promega Cytotox 96 Non-Radioactive cytotoxicity assay, (Cat. G1780) according the supplier's instructions.
The M17-TAU P301L cell line made it possible to assess the ability of the compounds of this invention to counteract TAU cytotoxicity. […] Potency of the relevant compounds was determined by testing them at different concentrations ranging from non-effective (thus at a relatively low concentration) to an effective concentration for their ability to reduce LDH activity of retinoic acid incubated M17-TAU P301L cells.

Row | Compound | IC50
4 | Cc1ncn(Nc2cccc(Cl)c2)c1-c1cccc(C(=O)O)c1 [HER/NR815] | 0.805 µg/mL (≈ 2.46 µM)
5 | CCc1[nH]c(=S)n(Nc2cccc(C)c2)c1-c1ccccc1 [HER/NR788] | 0.341 µg/mL (≈ 1.1 µM)
6 | Cc1cccc(Nn2c(-c3cccc(C#N)c3)c(C)[nH]c2=S)c1 [HER/NR804] | 0.154 µg/mL (≈ 0.481 µM)
7 | Cc1[nH]c(=S)n(Nc2cccc3ccccc23)c1-c1cccc(Cl)c1 [HER/NR915] | 0.037 µg/mL (≈ 0.101 µM)
8 | Cc1ccc(Nn2c(-c3ccccc3)c(C)[nH]c2=S)cc1Cl [HER/NR771] | 0.293 µg/mL (≈ 0.888 µM)
9 | COc1cccc(Nn2cnc(C)c2-c2ccccc2)c1 [HER/NR802] | 1.34 µg/mL (≈ 4.79 µM)
10 | Cc1cccc(Nn2c(SCc3ccccc3)nc(C)c2-c2ccccc2)c1 [HER/NR748] | 0.325 µg/mL (≈ 0.843 µM)
11 | Cc1c(-c2ccccc2)n(N(C)c2ccccc2)c(=S)n1C [HER/NR863] | 3.85 µg/mL (≈ 12.4 µM)
12 | Cc1cc(C)cc(Nn2c(-c3ccccc3)c(C)[nH]c2=S)c1 [HER/NR798] | 0.496 µg/mL (≈ 1.6 µM)
13 | COC(=O)c1cccc(-c2c(C)[nH]c(=S)n2Nc2cccc(Cl)c2)c1 [HER/NR812] | 0.328 µg/mL (≈ 0.877 µM)
14 | Cc1[nH]c(=S)n(Nc2cccc(Cl)c2)c1-c1ccc(Cl)cc1 [HER/NR762] | 0.061 µg/mL (≈ 0.174 µM)
15 | Cc1[nH]c(=S)n(Nc2cccc(Cl)c2)c1-c1ccc(Br)cc1 [HER/NR760] | 0.12 µg/mL (≈ 0.304 µM)
16 | Cc1ncn(Nc2cccc(Cl)c2)c1-c1ccccc1 [HER/NR746] | 0.081 µg/mL (≈ 0.285 µM)
17 | Cc1[nH]c(=S)n(Nc2cccc(Cl)c2)c1-c1ccccc1 [HER/NR724] | 0.34 µg/mL (≈ 1.08 µM)
18 | CSc1nc(C)c(-c2ccccc2)n1Nc1cccc(Cl)c1 [HER/NR747] | 0.256 µg/mL (≈ 0.776 µM)
19 | CCc1ccc(Nn2c(-c3ccccc3)c(C)[nH]c2=S)cc1 [HER/NR861] | 0.106 µg/mL (≈ 0.343 µM)
20 | Cc1[nH]c(=S)n(Nc2cccc(Cl)c2)c1-c1cccc(C(=O)O)c1 [HER/NR810] | 1 µg/mL (≈ 2.79 µM)
21 | Cc1[nH]c(=S)n(Nc2ccccc2)c1-c1ccccc1 [HER/NR772] | 0.568 µg/mL (≈ 2.02 µM)
22 | Cc1ccc(Nn2c(-c3ccccc3)c(C)[nH]c2=S)cc1C [HER/NR767] | 0.146 µg/mL (≈ 0.472 µM)
23 | CCc1[nH]c(=S)n(Nc2cccc(Cl)c2)c1-c1ccccc1 [HER/NR789] | 0.184 µg/mL (≈ 0.558 µM)
24 | Cc1[nH]c(=S)n(Nc2cccc(Br)c2)c1-c1ccccc1 [HER/NR768] | 0.44 µg/mL (≈ 1.22 µM)
25 | Cc1cccc(Nn2c(-c3ccccc3)c(C(C)C)[nH]c2=S)c1 [HER/NR787] | 0.4 µg/mL (≈ 1.24 µM)
26 | Cc1[nH]c(=S)n(Nc2ccc(Cl)cc2)c1-c1ccccc1 [HER/NR725] | 0.176 µg/mL (≈ 0.557 µM)
27 | Cc1[nH]c(=S)n(Nc2cccc3ccccc23)c1-c1cccc(Br)c1 [HER/NR914] | 0.045 µg/mL (≈ 0.11 µM)
28 | COc1cccc(Nn2c(-c3ccccc3)c(C)[nH]c2=S)c1 [HER/NR801] | 1.35 µg/mL (≈ 4.34 µM)
29 | Cc1ncn(Nc2ccc(F)cc2)c1-c1ccccc1 [HER/NR786] | 0.191 µg/mL (≈ 0.715 µM)
30 | Cc1[nH]c(=S)n(Nc2cccc(Cl)c2)c1-c1ccc(Cl)cc1Cl [HER/NR766] | 0.192 µg/mL (≈ 0.499 µM)

Row | Compound | IC50
31 | Cc1[nH]c(=S)n(Nc2ccccc2Cl)c1-c1ccccc1 [HER/NR723] | 0.024 µg/mL (≈ 0.076 µM)
32 | CCc1ncn(Nc2cccc(C)c2)c1-c1ccccc1 [HER/NR791] | 0.046 µg/mL (≈ 0.166 µM)
33 | Cc1[nH]c(=S)n(Nc2cccc(Cl)c2)c1-c1cccc(Br)c1 [HER/NR759] | 0.174 µg/mL (≈ 0.441 µM)
34 | Cc1cccc(Nn2c(-c3cccc(C(=O)O)c3)c(C)[nH]c2=S)c1 [HER/NR811] | 1.9 µg/mL (≈ 5.6 µM)
35 | Cc1cccc(Nn2cnc(C)c2-c2cccc(C#N)c2)c1 [HER/NR806] | 0.141 µg/mL (≈ 0.489 µM)
36 | Cc1cc(C)cc(Nn2cnc(C)c2-c2ccccc2)c1 [HER/NR808] | 0.023 µg/mL (≈ 0.0829 µM)
37 | Cc1[nH]c(=S)n(Nc2cccc(F)c2)c1-c1ccccc1 [HER/NR770] | 1.46 µg/mL (≈ 4.88 µM)
38 | Cc1[nH]c(=S)n(N(C)c2ccccc2)c1-c1ccccc1 [HER/NR866] | 0.195 µg/mL (≈ 0.66 µM)
39 | COc1ccc(-c2c(C)[nH]c(=S)n2Nc2cccc(Cl)c2)cc1 [HER/NR763] | 0.456 µg/mL (≈ 1.32 µM)
40 | Cc1cccc(Nn2c(-c3ccccc3)c(C)[nH]c2=S)c1 [HER/NR775] | 0.321 µg/mL (≈ 1.09 µM)
41 | Cc1ncn(Nc2cccc(Cl)c2)c1-c1ccc(Br)cc1 [HER/NR865] | 0.071 µg/mL (≈ 0.196 µM)
42 | Cc1nc(SC(O)C(O)C(O)C(O)C(O)CO)n(Nc2cccc3ccccc23)c1-c1ccccc1 (stereo not shown) [HER/NR953] | 0.052 µg/mL (≈ 0.102 µM)
43 | Cc1cccc(Nn2cnc(C)c2-c2cccc(C(N)=O)c2)c1 [HER/NR809] | 0.33 µg/mL (≈ 1.08 µM)
44 | Cc1[nH]c(=S)n(Nc2cccc([N+](=O)[O-])c2)c1-c1ccccc1 [HER/NR774] | 2.13 µg/mL (≈ 6.53 µM)
45 | Cc1ncn(Nc2ccccc2)c1-c1ccccc1 [HER/NR776] | 0.455 µg/mL (≈ 1.82 µM)
46 | COC(=O)c1cccc(-c2c(C)ncn2Nc2cccc(Cl)c2)c1 [HER/NR814] | 0.172 µg/mL (≈ 0.503 µM)
47 | Cc1[nH]c(=S)n(Nc2cccc(Cl)c2)c1-c1cccc(C(N)=O)c1 [HER/NR813] | 0.18 µg/mL (≈ 0.502 µM)
48 | CSc1ccc(Nn2c(-c3ccccc3)c(C)[nH]c2=S)cc1 [HER/NR862] | 0.027 µg/mL (≈ 0.0824 µM)
49 | Cc1[nH]c(=S)n(Nc2ccc(F)cc2)c1-c1ccccc1 [HER/NR773] | 0.426 µg/mL (≈ 1.42 µM)
50 | Cc1ncn(Nc2cccc(Cl)c2)c1-c1cccc(Cl)c1 [HER/NR777] | 0.107 µg/mL (≈ 0.336 µM)
51 | Cc1ncn(Nc2cccc(Cl)c2)c1-c1cccc(C#N)c1 [HER/NR805] | 0.09 µg/mL (≈ 0.291 µM)
52 | Cc1[nH]c(=S)n(Nc2cccc(Cl)c2)c1-c1cccc(C#N)c1 [HER/NR803] | 0.086 µg/mL (≈ 0.252 µM)
53 | Cc1cccc(Nn2cnc(C)c2-c2ccccc2)c1 [HER/NR790] | 0.059 µg/mL (≈ 0.224 µM)
54 | Cc1[nH]c(=S)n(Nc2cccc(Cl)c2)c1-c1cccc(Cl)c1 [HER/NR761] | 0.11 µg/mL (≈ 0.314 µM)
55 | Cc1ccc(Nn2cnc(C)c2-c2ccccc2)cc1Cl [HER/NR864] | 0.057 µg/mL (≈ 0.191 µM)
56 | Cc1[nH]c(=S)n(Nc2cc(Cl)ccc2Cl)c1-c1ccccc1 [HER/NR769] | 0.434 µg/mL (≈ 1.24 µM)

same assay, conditions: reduction of LDH activity of retinoic acid incubated M17-TAU P301L cells, 7 days

Row | Compound | IC50
57 | Cc1ncn(Nc2cccc(Cl)c2)c1-c1cccc(Br)c1 [HER/LI412 = NR779GLUCOSE] | 0.216 µg/mL (≈ 0.596 µM)
58 | Cc1ncn(Nc2cccc(Cl)c2)c1-c1cccc(Br)c1 [HER/NR779] | 0.022 µg/mL (≈ 0.0607 µM)
